System: Colorado Potato Beetle (Leptinotarsa decemlineata)
Test: Activity against Colorado potato beetle, potato leaf dip
Assay type: in vivo
Conditions: foliar, 120 h, read-out: mortality compared to 0% mortality of untreated controls
Procedure: 6. Activity Against Colorado Potato Beetle (Leptinotarsa decemlineata)
Potato plants were utilized for bioassays. Excised plant leaves were dipped into 1:1 acetone/water dilutions of the active compounds. After the leaves had dried, they were individually placed onto water-moistened filter paper on the bottoms of Petri dishes. Each dish was infested with 5 to 7 larvae and covered with a lid. Each treatment dilution was replicated 4 times. Test dishes were held at approximately 27° C. and 60% humidity. Numbers of live and morbid larvae were assessed in each dish at 5 days after treatment application, and percent mortality was calculated.

For CC(C)N1CC[C@H]1COc1cncc(Cl)c1 [Ia-155, 3-Chloro-5-((S)-1-isopropyl-azetidin-2-ylmethoxy)-pyridine], the mortality at 300 ppm was greater than 50%.

From US20100069244A1, “Pyridine Compounds for Combating Pests” (priority 2006, published 2010)
